Reference: patent publication US20030236301A1, “Liposomal delivery of vitamin E based compounds” (priority 2001, published 2003)
Values joined by “and” are separate entries in the source; they are usually repeats but may differ in a detail not shown here. Equal values may be shown once. “Also recorded” adds a separate entry of the source.

Key:
[1] = test system: 66 c1.4 GFP murine mammary tumor cells; assay: Lung and lymph node metastases of 66 c1.4-GFP tumors in Balb/c mice; assay type: in vivo
Text: Metastastic lesions in the five lung lobes were counted visually at time of sacrifice. Fluorescent green micro-metastatic cancer cell colonies in the left lung lobe and lymph nodes were counted using a Nikon fluorescence microscope (TE-200) with a 20×objective (200× magnification) and Image-Pro Plus (version 4.1; Media Cybernetics, Silver Spring, Md.) software associated with the microscope. Fluorescent lesions were separated into three size grouping: <5 μm, 5-10 μm and >10 μm.
At sacrifice, lungs were taken, examined visually for metastatic lesions and frozen for analyses of micrometastases by fluorescence.
Use of a Nikon fluorescence microscope and Image-Pro Plus software permitted measurement of green fluorescing micrometastases into three size groupings of <5 μm, 5-10 μm and >10 μm.
At sacrifice, the left lung lobe of each mouse of flash frozen and saves for detection of GFP expressing micrometatstic lesions via fluorescent microscopy.

[2] = AeroTech II nebulizer; geometric standard deviation 2.04
Experimental: Aerosol was administered to mice as previously described (17).

[3] = Serum and tissue levels of α-TEA after liposomal aerosol (HPLC); assay type: in vivo, mice
Experimental: Eight mice are treated via pulmonary aerosol delivery with 40 mg of α-TEA (5 mg/mouse) in 6 ml liposomes. The mice inhaled the aerosol over a period of 30 minutes until delivery was complete. Mice are sacrificed 0, 2, 6, or 24 hours after the treatment ended. Serum and tissue levels of α-TEA are determined by HPLC analyses (FIG. 7).

[4] = test system: Poly (ADP-Ribose) Polymerase (PARP) cleavage in 66 c1.4-GFP cells; assay: Western immunoblot detection of PARP cleavage fragment; assay type: cell-based, mouse; details: 48 hours
Experimental: Poly (ADP-Ribose) Polymerase cleavage was analyzed as an alternate method for detecting apoptosis. 66 c1.4-GFP cells were treated as described above for the DAPI assay. Following the PBS wash, cells were suspended in lysis buffer (1×PBS, 1% Nonidet P-40, 0.5% sodium deoxycholate, 0.1% sodium dodecyl sulfate (SDS), 1 μg/ml leupeptin, 1 μg/ml aprotinin, 1 mM dithiothreitol (DTT), 2 mM sodium orthovanadate, 10 μg/ml phenylmethylsulfonyl fluoride (PMSF)) for 30 min at 4° C., vortexed, and supernatants collected by centrifugation at 15,000×g for 20 min. Protein concentrations were determined using the Bio-Rad (Bradford) protein assay (Bio-Rad Laboratories, Hercules, Calif.), and samples (100 μg/lane) resolved on 7.5% SDS-polyacrylamide gels electrophoresed under reducing conditions.
Proteins were electroblotted onto a nitrocellulose membrane ([…] Optitran BA-S-supported nitrocellulose; Schleicher and Schuell, Keene, N.H.). After transfer, membranes were blocked with blocking buffer [25 mM Tris-HCl (pH 8.0), 125 mM NaCl, 0.5% Tween-20, and 5% non-fat dry milk] for 45 min at room temperature. Immunoblotting was performed using 1 μg of primary rabbit anti-human Poly (ADP-Ribose) Polymerase antibody [PARP (H-250), Santa Cruz Biotechnology, Santa Cruz, Calif.], and horseradish peroxidase-conjugated goat anti-rabbit immunoglobulin was used as the secondary antibody (Jackson Immunoresearch Laboratory, West Grove, Pa.) at a 1:3,000 dilution. Horseradish peroxidase-labeled bands from washed blots were detected by enhanced chemiluminescence (Pierce, Rockford, Ill.) and autoradiography (Kodak BioMax film; Rochester, N.Y.).

[5] = test system: cp-70 human ovarian cancer cells; assay: Apoptosis in cp-70 ovarian cancer cells in vitro; assay type: cell-based; details: treated in culture
[6] = Aerosol characteristics: estimated α-TEA deposited in respiratory tract (HPLC, All Glass Impinger); parameters: species or system mouse; details: liposomal aerosol, 15 min, estimated deposited fraction 30%
Experimental: HPLC analyses were conducted on α-TEA liposomes recovered from aerosol in the All Glass Impinger (Ace Glass Co., Vineland, N.J.). The delivered dosage=concentration (μg/L)×mouse minute volume (1-min/kg)×duration of delivery (min)×estimated deposited fraction (30%; 17).

[7] = Body weight and long term safety in Balb/c mice; assay type: in vivo
Experimental: Body weights were determined weekly.
Nine days after tumor inoculation, treatments groups are initiated: Aerosol Treatment (TX)=aerosol delivery of α-TEA liposome (5 mg/mouse)/daily through day 23. Aerosol Control=Aerosol delivery of liposome composition only daily through day 23. Gavage treatment=gavage administration of α-TEA at 5 mg/mouse in ethanol/peanut oil daily through day 23. Gavage control=gavage administration of ethanol/peanut oil only through day 23. Mice were weighed at the initiation of treatment (day 9) and thereafter on days 13, 16, 20, and 23 (FIG. 6). Data are presented as the mean+/−standard deviation.

66 c1.4-GFP cells [8] = assay: Colony-forming assay; details: 10 days
Experimental: 66 c1.4-GFP cells were seeded at 600 cells per 35×10 mm tissue culture plate (Nunclon, Rochester, N.Y.) and allowed to adhere over night at 37° C. […] Treatments were left on the cells for 10 days without change of media. After 10 days, media were removed and plates were washed with PBS three times. Cells were stained for 30 min with 1% methylene blue in PBS and colonies >0.5 mm manually counted.

66 c1.4-GFP cells [9] = assay: Apoptosis by morphological evaluation of DAPI-stained nuclei; details: three days
Experimental: Briefly, 1×10^5 cells/well in 12-well plates were cultured overnight to permit attachment. […] After treatment, floating cells plus scraped-released adherent cells were pelleted by centrifugation for 5 min at 350×g, washed one time with phosphate buffered saline (PBS; 137 mM NaCl, 2.7 mM KCL, 10.4 mM Na2HPO4, 10.5 mM KH2PO4; pH 7.2), and stained with 2 μg/ml of 4′,6-diamidino-2-phenylindole dihydrochloride (DAPI, Boehringer Mannheim, Indianapolis, Ind.) in 100% methanol for 15 min at 37° C.
Cells were viewed at 400× magnification with a Zeiss ICM 405 fluorescent microscope using a 487701 filter. […] Data are reported as percentage of apoptotic cells per cell population, i.e., number apoptotic cells/total number of cells counted. Three different microscopic fields were examined and 200 cells counted at each location for a minimum of 600 cells counted per slide. Apoptotic data are presented as mean±S.D. for three independently conducted experiments.

[10] = test system: 66 c1.4 GFP murine mammary tumor cells; assay: Tumor growth of 66 c1.4-GFP mammary tumor cells in Balb/c mice (tumor volume); details: for reduction of mean tumor volume vs aerosol control: Example 25: liposomal α-TEA/aerosol; for inhibition of tumor growth: Example 18: liposomal formulation by aerosol
Experimental: 66 c1.4-GFP cells were harvested by trypsinization, centrifuged, resuspended in McCoy's media, containing no supplements at a density of 2×10^5/100 μl. Mice were injected in the inguinal area at a point equal distance between the 4th and 5th nipples on the right side using a 23 gauge needle.
50 mice were assigned (10 per group) to aerosol treatment, aerosol control, oral treatment, oral control, or to the no treatment group so that the average tumor volume for all groups were closely matched. […] Tumors were measured using calipers every other day, and volumes were calculated using the formula: volume (mm^3) [width (mm)^2×length (mm)]/2. Body weights were determined weekly.
Balb/c mice were injected with 200,000 66 c1.4 GFP cells subcutaneous in the mammary fat pad area between the 4th and 5th nipple on the right side of the body.
Mice are injected with 200,000 66 c1.4 GFP murine mammary tumor cells as described on day 0. Treatments are initiated on day 9 when tumors reached 1-3 mm in size. Aerosol treatments of α-TEA liposomes (5 mg α-TEA/mouse) are administered daily for 16 days (FIG. 8). Data represent the mean+/−Standard Error (SE), N=10 mice for control and treatment groups.
Balb/c mice were injected s.c. with 2×10^5 66 c1.4-GFP cells in the inguinal area between the 4th and 5th nipple on the right side of the body. When tumors reached 2×2-4×4 mm (9 days after tumor injection), mice were placed into 5 groups ((Group 1: untreated control, Group 2: liposome/aerosol control, Group 3: liposomal α-TEA aerosol treatment, Group 4: peanut oil/gavage control, Group 5: α-TEA in peanut oil/gavage treatment) of 10 mice/group) such that the mean tumor volume of each group was closely matched. Daily treatments were initiated on day 9 after tumor injection.
Balb/c mice were injected with 200,000 66 c1.4 GFP cells subcutaneous in the mammary fat pad area between the 4th and 5th nipple on the right side of the body. […] Animals were treated with α-TEA in liposome, vitamin E succinate in liposome, or control liposome alone via aerosol, 7 days per week, for 21 days. Animals were given 75 mg compound via nebulization per day such that each animal received 36 μg compound per day.
The size of the tumors, 9-21 days after injection of 200,000 66 c1.4 GFP cells between the 4th and 5th nipple on the right side of each mouse, is determined. Treatments are initiated on day 9 after tumor inoculation. Each group consists of n=10+/−SE. Gavage Treatment=Treatments of 5 mg of α-TEA in ethanol and peanut oil (0.1 ml volume) are administered daily starting on day 9 after tumor inoculation and continuing through day 21. Gavage Control=Mice received peanut oil and ethanol alone (0.1 ml volume)/daily, starting on day 9 after tumor inoculation and continuing through day 21. Data (tumor size) are depicted as the mean+/−standard error for days 9, 11, 13, 15, 17, 19, and 21.
Balb/c mice were injected with 200,000 66 c1.4 GFP cells subcutaneous in the mammary fat pad area between the 4th and 5th nipple on the right side of the body. […] Animals were treated with α-TEA in liposome vitamin E succinate in liposome, or control liposome alone via oral gavage, 2 times per day, 7 days per week, for 21 days. Animals were given a total of 6 mg compound per day.

[11] = test system: A2780 cisplatin-sensitive cell line; assay: Apoptosis in A2780 ovarian cancer cells in vitro; assay type: cell-based, human; details: treated in culture
MDA-MB-435 GFP FL cells = assay: Tumor growth of MDA-MB-435 GFP FL breast cancer cells in nude mice; assay type: in vivo, Nu/Nu athymic nude mice; details: for reduction of tumor growth: Example 32: liposome gavage, 8 mg per day
Experimental: Animals were given a total of 8 mg compound per day. […] Alpha-TEA liposome gavage reduced tumor growth by 68, 75, 78, 79 and 79% on days 27, 29, 31, 33, and 35, respectively (FIG. 15).
Animals were […] 3 ppm methylselenocysteine (MSC) in water, α-TEA in liposome via aerosol, or gavaged 10 mg/kg b.w. trans-resveratrol (t-RES) in first 1:1. EtOH:physiological saline, and starting at day 24, 6.5% EtOH and 93.5% Neobee oil. A combination group was treated with each of the above three compounds, and a control group was treated with aerosolized liposome. 100 μl water, and 50 μl of the t-Res solvent. Animals were treated seven days a week, for 35+ days.

66 c1.4-GFP tumors [12] = assay: KI-67 immunohistochemistry of cell proliferation in tumors; assay type: in vivo, Balb/c mice; details: liposomal formulation by aerosol, vs control
[13] = test system: 66 c1.4 GFP murine mammary tumor cells; assay: TUNEL assay for apoptosis in vivo in 66 c1.4-GFP tumor sections; parameters: species or system Balb/c mice; details: liposomal formulation by aerosol, vs control
Text: Deparaffinized sections (5 μm) of tumor tissue were used to assess apoptosis using reagents supplied in the ApopTag In Situ Apoptosis Detection kit (Intergen, Purchase, N.Y.) according to the manufacturer's instructions. Nuclei that stained brown were scored as positive for apoptosis and those that stained blue were scored as negative. At least sixteen 400× microscopic fields were scored per tumor. Data are presented as the mean±S.E. number of apoptotic cells counted in three separate tumors from each group. Pictures of tumor tissue were taken at 1000× magnification.

66 c1.4-GFP tumors [14] = assay: CD31 immunohistochemistry of tumor blood vessel numbers; assay type: in vivo, Balb/c mice; details: liposomal formulation by aerosol, vs control
[15] = after thirty minutes, intramuscular delivery; cited from earlier work
[16] = Example 33: liposomal aerosol, α-TEA 5 mg/d, 9NC 2 μg/d in nebulizer, listed as Lip/α-TEA
[17] = liposomal aerosol, at sacrifice

Cc1c(C)c2c(c(C)c1OCC(=O)O)CC[C@@](C)(CCC[C@H](C)CCC[C@H](C)CCCC(C)C)O2 [α-TEA, 2,5,7,8-tetramethyl-(2R-(4R,8R,12-trimethyltridecyl)chroman-6-yloxy) Acetic Acid]
lymph node micrometastatic lesions (average) ([1]; Example 31: liposomal formulation via gavage, 6 mg per day): 3.1±0.8
Inhibition (%) Metastases Lung [1, 16]: 71%
Inhibition (%) Metastases Lymphnode [1, 16]: 94%
Inhibition (%) Metastases Lung ([1]; Liposomal, Aerosol, 5 mg/d, vs aerosol control): 81%
Inhibition (%) Metastases Lung ([1]; Liposomal, Gavage, 3 mg/2× d): 59%
Inhibition (%) Metastases Lymphnode ([1]; Liposomal, Gavage, 3 mg/2× d): 56%
No. Animals/Group with Visible Lung Metastases [1, 17]: 0/10
No. Visible Lung Tumor Foci/Animal [1, 17]: No visible tumors
No. Visible Lung Tumor Foci/Animal ([1]; liposomal aerosol, at sacrifice, listed as Aer./Liposome/α-TEA): 0
mass median aerodynamic diameter of liposome aerosol [2]: 2.01 μm
serum and tissue presence of α-TEA ([3]; liposomal aerosol 5 mg/mouse over 30 minutes, 0 hours after treatment ended): found only in the stomach tissue
serum and tissue presence of α-TEA ([3]; liposomal aerosol 5 mg/mouse, 2 hours after completion of treatment): present in the serum and stomach
serum and tissue presence of α-TEA ([3]; liposomal aerosol 5 mg/mouse, 6 hours after completion of treatment): present in the liver and stomach
serum and tissue presence of α-TEA ([3]; liposomal aerosol 5 mg/mouse, 24 hours after completion of treatment): present in the liver and stomach
PARP cleavage (84 kDa fragment) ([4]; 5 μg/ml): only intact PARP protein was detected
PARP cleavage (84 kDa fragment) ([4]; 10 μg/ml): evident
PARP cleavage (84 kDa fragment) ([4]; 20 μg/ml): evident
induction of apoptosis [5]: undergo apoptosis
α-TEA deposited in the respiratory tract of each mouse each day [6]: approximately 36 μg and ~36 μg
long term adverse effects ([7]; non-tumor bearing mice, aerosol or gavage for 17 days, kept eleven months): did not show any adverse effects
body weight vs control groups ([7]; tumor-bearing mice, liposome aerosol or gavage in ethanol/peanut oil, 5 mg/mouse daily): no significant weight differences; also recorded: No differences in mean body weights
decrease of colony formation compared to EtOH control (66 c1.4-GFP cells [8]; 1.25 μg/ml): 30%
colony formation (66 c1.4-GFP cells [8]; 5 μg/ml): No colonies formed
colony formation (66 c1.4-GFP cells [8]; 10 μg/ml): No colonies formed
apoptosis (percentage of apoptotic cells) (66 c1.4-GFP cells [9]; 2.5 μg/ml): 5%
apoptosis (percentage of apoptotic cells) (66 c1.4-GFP cells [9]; 5 μg/ml): 6%
nuclear morphology of DAPI stained cells (66 c1.4-GFP cells [9]; 10 μg/ml): exhibited condensation and fragmented DNA
reduction of mean tumor volume vs aerosol control ([10]; day 13 of treatment): 50%
reduction of mean tumor volume vs aerosol control ([10]; day 17 of treatment): 61%
reduction of tumor growth ([10]; Example 26: liposome aerosol, 75 mg in nebulizer/day, day 21): 67%
tumor weights vs gavage control ([10]; Example 27: gavage, 5 mg in ethanol and peanut oil daily, days 9-21): no significant differences
mean tumor volume vs gavage control ([10]; Example 28: gavage, 5 mg/day/mouse EtoH/peanut oil formulation): did not differ
reduction of tumor growth ([10]; Example 30: liposome gavage, 6 mg per day, day 15): 85%
reduction of tumor growth ([10]; Example 30: liposome gavage, 6 mg per day, day 17): 85%
reduction of tumor growth ([10]; Example 30: liposome gavage, 6 mg per day, day 21): 70%
Inhibition (%) Tumor Growth [10, 16]: 65%
Inhibition (%) Tumor Growth ([10]; Liposomal, Gavage, 3 mg/2× d): 70%
induction of apoptosis [11]: undergo apoptosis
reduction of tumor growth (MDA-MB-435 GFP FL cells; day 27): 68%
reduction of tumor growth (MDA-MB-435 GFP FL cells; day 29): 75%
reduction of tumor growth (MDA-MB-435 GFP FL cells; day 31): 78%
reduction of tumor growth (MDA-MB-435 GFP FL cells; day 33): 79%
reduction of tumor growth (MDA-MB-435 GFP FL cells; day 35): 79%
decrease of tumor volume from the control (MDA-MB-435 GFP FL cells; Example 35: day 35): 47.8%

Cc1c(C)c2c(c(C)c1O)CCC(C)(CCCC(C)CCCC(C)CCCC(C)C)O2 (racemic) [dl-α-tocopherol]
% Reduction of KI67 cell proliferation (66 c1.4-GFP tumors [12]): 33%
% Enhanement of TUNEL positive apoptotic cells [13]: 44%
inhibition of tumor growth ([10]; 75 mg in nebulizer/day, day 15 of treatment): 81%
inhibition of tumor growth ([10]; 75 mg in nebulizer/day, day 17 of treatment): 73%
% Reduction of CD31 tumor blood vessel numbers (66 c1.4-GFP tumors [14]): 51%

CC[C@@]1(O)C(=O)OCc2c1cc1n(c2=O)Cc2cc3c([N+](=O)[O-])cccc3nc2-1 [9-nitrocamptothecin, reference compound]
Inhibition (%) Metastases Lymphnode ([1]; Example 33: liposomal aerosol, α-TEA 5 mg/d, 9NC 2 μg/d in nebulizer, listed as Lip/9NC): 60%
Levels of 9-nitrocamptothecin in the brain [15]: 0
